{"source": "patent US20070027145A1", "about": "“Quinazoline derivatives as inhibitors of vegf receptor tyrosine kinases” (priority 2003, published 2007)", "key": {"[1]": {"target": "T1, KDR (Homo sapiens, UniProt P35968)", "T1 construct": "made in house; host or cells: insect cells (e.g. Spodoptera frugiperda Sf21), recombinant baculovirus", "T1 sequence (P35968 786-1356 limits assumed)": "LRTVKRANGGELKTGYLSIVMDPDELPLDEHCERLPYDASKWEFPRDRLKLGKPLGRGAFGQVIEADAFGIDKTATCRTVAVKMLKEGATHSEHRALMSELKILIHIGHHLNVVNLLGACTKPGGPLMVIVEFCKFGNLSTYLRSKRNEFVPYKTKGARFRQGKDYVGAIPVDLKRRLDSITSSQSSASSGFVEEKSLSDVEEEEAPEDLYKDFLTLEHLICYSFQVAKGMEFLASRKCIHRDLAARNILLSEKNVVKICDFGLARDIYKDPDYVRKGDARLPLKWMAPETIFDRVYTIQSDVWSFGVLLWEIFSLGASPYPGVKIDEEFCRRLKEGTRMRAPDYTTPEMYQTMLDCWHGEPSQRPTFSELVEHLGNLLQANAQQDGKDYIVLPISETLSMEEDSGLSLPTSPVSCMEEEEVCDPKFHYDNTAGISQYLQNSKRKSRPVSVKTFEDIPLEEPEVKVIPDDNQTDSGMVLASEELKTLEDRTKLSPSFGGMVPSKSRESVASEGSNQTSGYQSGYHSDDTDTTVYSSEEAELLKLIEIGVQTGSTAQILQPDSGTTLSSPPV", "assay": "In vitro receptor tyrosine kinase inhibition test (a), KDR", "type": "biochemical", "conditions": "read-out: IC50 in the enzyme assay (a) against KDR", "excerpt": "(§1) This assay determines the ability of a test compound to inhibit tyrosine kinase activity. DNA encoding VEGF or epidermal growth factor (EGF) receptor cytoplasmic domains may be obtained by total gene synthesis (Edwards M, International Biotechnology Lab 5(3), 19-25, 1987) or by cloning. These may then be expressed in a suitable expression system to obtain polypeptide with tyrosine kinase activity. […] In the case of the VEGF receptor Flt (Genbank accession number X51602), a 1.7 kb DNA fragment encoding most of the cytoplasmic domain, commencing with methionine 783 and including the termination codon, described by Shibuya et al (Oncogene, 1990, 5: 519-524), was isolated from cDNA and cloned into a baculoviris transplacement vector (for example pAcYM1 (see The Baculovirus Expression System: A Laboratory Guide, L. A. King and R. D. Possee, Chapman and Hall, 1992) or pAc360 or pBlueBacHis (available from Invitrogen Corporation)). This recombinant construct was co-transfected into insect cells (for example Spodoptera frugiperda 21(Sf21)) with viral DNA (eg Pharmingen BaculoGold) to prepare recombinant baculovirus. […]"}, "[2]": {"target": "T2, Flt-1 (Homo sapiens, UniProt P17948)", "T2 construct": "encoding most of the cytoplasmic domain, commencing with methionine 783 and including the termination codon; made in house; host or cells: Sf21 insect cells, recombinant baculovirus", "T2 sequence (P17948 781-1338 limits assumed)": "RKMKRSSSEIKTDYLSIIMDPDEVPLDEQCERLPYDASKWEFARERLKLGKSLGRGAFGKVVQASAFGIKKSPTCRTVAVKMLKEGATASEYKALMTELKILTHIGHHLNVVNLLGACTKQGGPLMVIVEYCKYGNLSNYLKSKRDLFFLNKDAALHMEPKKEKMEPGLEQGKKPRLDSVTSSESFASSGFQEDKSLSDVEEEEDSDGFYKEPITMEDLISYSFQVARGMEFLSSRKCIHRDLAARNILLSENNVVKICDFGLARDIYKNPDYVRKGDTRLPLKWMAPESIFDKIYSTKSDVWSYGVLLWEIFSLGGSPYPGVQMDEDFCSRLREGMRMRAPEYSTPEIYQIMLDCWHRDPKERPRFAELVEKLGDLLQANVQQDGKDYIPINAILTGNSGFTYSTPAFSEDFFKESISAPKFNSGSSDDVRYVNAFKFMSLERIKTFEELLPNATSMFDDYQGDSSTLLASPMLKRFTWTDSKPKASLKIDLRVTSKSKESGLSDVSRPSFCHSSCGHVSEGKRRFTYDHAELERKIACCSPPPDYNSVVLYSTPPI", "assay": "In vitro receptor tyrosine kinase inhibition test (a), Flt-1", "type": "biochemical", "conditions": "read-out: IC50 in the enzyme assay (a) against Flt-1", "excerpt": "as §1"}, "[3]": {"target": "T3, EGFR (Homo sapiens, UniProt P00533)", "T3 construct": "made in house; host or cells: insect cells (e.g. Spodoptera frugiperda Sf21), recombinant baculovirus", "T3 sequence (P00533 669-1210 limits assumed)": "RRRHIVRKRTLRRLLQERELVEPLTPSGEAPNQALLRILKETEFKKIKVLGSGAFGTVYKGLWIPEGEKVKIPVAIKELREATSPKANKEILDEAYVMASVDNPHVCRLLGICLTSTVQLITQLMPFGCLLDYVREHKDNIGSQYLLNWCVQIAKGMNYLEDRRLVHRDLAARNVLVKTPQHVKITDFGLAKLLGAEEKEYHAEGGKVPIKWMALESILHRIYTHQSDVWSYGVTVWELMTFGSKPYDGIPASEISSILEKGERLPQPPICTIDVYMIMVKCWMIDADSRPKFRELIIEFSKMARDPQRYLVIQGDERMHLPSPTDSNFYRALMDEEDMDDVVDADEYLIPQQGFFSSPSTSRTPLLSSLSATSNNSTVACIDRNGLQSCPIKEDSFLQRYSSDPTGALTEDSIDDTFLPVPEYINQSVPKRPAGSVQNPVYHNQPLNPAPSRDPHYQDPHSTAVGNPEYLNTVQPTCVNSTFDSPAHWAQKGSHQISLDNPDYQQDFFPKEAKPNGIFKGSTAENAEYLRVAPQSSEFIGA", "assay": "In vitro receptor tyrosine kinase inhibition test (a), EGFR", "type": "biochemical", "conditions": "read-out: IC50 in the enzyme assay (a) against EGFR", "excerpt": "as §1"}, "[4]": {"system": "VEGF-stimulated proliferation of human umbilical vein endothelial cells (HUVEC)", "assay": "In vitro HUVEC proliferation assay (b), VEGF-stimulated", "type": "cell-based", "conditions": "VEGF 3 ng/ml, read-out: IC50 in the HUVEC assay (b) with respect to VEGF", "experimental": "(§2) This assay determines the ability of a test compound to inhibit the growth factor-stimulated proliferation of human umbilical vein endothelial cells (HUVEC).\n(§3) HUVEC cells were isolated in MCDB 131 (Gibco BRL)+7.5% v/v fetal calf serum (PCS) and were plated out (at passage 2 to 8), in MCDB 131+2% v/v FCS+3 μg/ml heparin+1 µg/ml hydrocortisone, at a concentration of 1000 cells/well in 96 well plates. After a minimum of 4 hours they were dosed with the appropriate growth factor (i.e. VEGF 3 ng/ml, EGF 3 ng/ml or b-FGF 0.3 ng/ml) and compound. The cultures were then incubated for 4 days at 37° C. with 7.5% carbon dioxide. On day 4 the cultures were pulsed with 1 μCi/well of tritiated-thymidine (Amersham product TRA 61) and incubated for 4 hours. The cells were harvested using a 96-well plate harvester (Tomtek) and then assayed for incorporation of tritium with a Beta plate counter. Incorporation of radioactivity into cells, expressed as cpm, was used to measure inhibition of growth factor-stimulated cell proliferation by compounds."}, "[5]": {"system": "EGF-stimulated proliferation of human umbilical vein endothelial cells (HUVEC)", "assay": "In vitro HUVEC proliferation assay (b), EGF-stimulated", "type": "cell-based", "conditions": "EGF 3 ng/ml, read-out: IC50 in the HUVEC assay (b) with respect to EGF", "experimental": "as §2, §3"}, "[6]": {"target": "T4, human ether-a-go-go-related-gene (hERG)-encoded potassium channel (Homo sapiens, UniProt Q12809)", "T4 construct": "expressed in transfected cells; host or cells: Human embryonic kidney (HEK) cells under G418 selection", "T4 sequence (Q12809 whole entry)": "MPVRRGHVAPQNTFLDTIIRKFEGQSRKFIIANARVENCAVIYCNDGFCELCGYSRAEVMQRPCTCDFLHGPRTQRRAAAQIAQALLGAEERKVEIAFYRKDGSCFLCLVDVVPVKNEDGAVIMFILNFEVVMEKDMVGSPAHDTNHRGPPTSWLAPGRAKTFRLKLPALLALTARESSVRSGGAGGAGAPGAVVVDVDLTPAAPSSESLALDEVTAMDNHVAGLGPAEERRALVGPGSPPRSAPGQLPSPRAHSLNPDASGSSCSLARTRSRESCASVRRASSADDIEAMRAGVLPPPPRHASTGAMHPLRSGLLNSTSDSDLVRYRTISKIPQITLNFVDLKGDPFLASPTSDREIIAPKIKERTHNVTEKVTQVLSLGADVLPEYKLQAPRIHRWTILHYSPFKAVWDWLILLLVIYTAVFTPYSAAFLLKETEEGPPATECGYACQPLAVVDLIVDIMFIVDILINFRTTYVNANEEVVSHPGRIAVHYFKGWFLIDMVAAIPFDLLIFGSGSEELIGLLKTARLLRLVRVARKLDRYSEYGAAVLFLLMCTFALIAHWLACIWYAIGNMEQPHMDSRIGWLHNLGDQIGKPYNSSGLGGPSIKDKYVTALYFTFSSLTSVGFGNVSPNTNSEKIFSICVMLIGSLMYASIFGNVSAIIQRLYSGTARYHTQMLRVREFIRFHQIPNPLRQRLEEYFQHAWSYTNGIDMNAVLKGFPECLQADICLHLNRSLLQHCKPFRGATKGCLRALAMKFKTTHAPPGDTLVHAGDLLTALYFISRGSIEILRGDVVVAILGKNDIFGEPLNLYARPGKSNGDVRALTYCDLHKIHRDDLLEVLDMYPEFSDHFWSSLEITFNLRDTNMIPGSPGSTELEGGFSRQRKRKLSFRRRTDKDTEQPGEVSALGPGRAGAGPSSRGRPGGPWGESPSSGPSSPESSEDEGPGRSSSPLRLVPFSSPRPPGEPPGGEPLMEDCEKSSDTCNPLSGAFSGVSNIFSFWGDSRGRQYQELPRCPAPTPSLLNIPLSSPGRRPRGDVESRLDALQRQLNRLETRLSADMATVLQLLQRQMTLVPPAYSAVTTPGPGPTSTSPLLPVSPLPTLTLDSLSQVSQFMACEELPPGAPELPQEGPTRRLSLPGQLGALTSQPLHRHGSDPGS", "assay": "hERG-encoded potassium channel inhibition test (d)", "type": "cell-based", "conditions": "HEK cells, whole cell patch clamp, tail current", "experimental": "This assay determines the ability of a test compound to inhibit the tail current flowing through the human ether-a-go-go-related-gene (hERG)-encoded potassium channel.\nHuman embryonic kidney (HEK) cells expressing the hERG-encoded channel were grown in Miniium Essential Medium Eagle (EMEM; Sigma-Aldrich catalogue number M2279), supplemented with 10% Foetal Calf Serum (Labtech Internation; product number 4-101-500), 10% M1 serum-free supplement (Egg Technologies; product number 70916) and 0.4 mg/ml Geneticin G418 (Sigma-Aldrich; catalogue number G7034). […]\nFor each cell recorded, a glass coverslp containing the cells were placed at the bottom of a Perspex chamber containging bath solution (see below) at ambient temperature (˜20° C.). […]\nThe cell was recorded in the whole cell configutation of the patch clamp technique. […]\nThe amplitude of the hERG-encoded potassium channel tail current following the step from +40 mV to −50 mV was recorded on-line by Clampex software (Axon Instruments). […]\nThe effect of each concentration of test compound was quantified by expressing the tail current amplitude in the presence of a given concentration of test compound as a percentage of that in the presence of vehicle.\nTest compound potency (IC50) was determined by fitting the percentage inhibition values making up the concentration-effect to a four parameter Hill equation using a standard data-fitting package."}}, "data": [{"smiles": "COc1cc2c(Nc3ccc(Br)cc3F)ncnc2cc1OCC1CCN(C(=O)CN(C)C)CC1", "note": "[Example 1, 4-(4-bromo-2-fluoroanilino)-7-({1-[(N,N-dimethylamino)acetyl]piperidin-4-yl}methoxy)-6-methoxyquinazoline]", "values": [{"measurement": "IC50", "setting": "[1]", "result": 29, "unit": "nM"}, {"measurement": "IC50", "setting": "[2]", "result": 490, "unit": "nM"}, {"measurement": "IC50", "setting": "[3]", "result": 72, "unit": "nM"}, {"measurement": "IC50", "setting": "[4]", "result": 11.4, "unit": "nM"}, {"measurement": "IC50", "setting": "[5]", "result": 100, "unit": "nM"}, {"measurement": "IC50", "setting": "[6]", "result": 1500, "unit": "nM"}]}]}
